The values that follow come from the NIST ThermoML archive (doi:10.1016/j.fluid.2012.11.026).

The conditions of this series: Liquid, Closed cell (Static) method.

Each structure is given as a SMILES string. ± gives the expanded uncertainty stated by the source.

As usually defined, the vapor or sublimation pressure is the equilibrium pressure above the liquid or solid. Consider `CCO` [ethanol], for which the “vapor or sublimation pressure” value by setting is: (353.15 K) 108.14 ± 11 kPa; (363.15 K) 156.04 ± 16 kPa.

`O` [water]: the “vapor or sublimation pressure” value reads like this: (353.15 K) 47.33 ± 4.8 kPa; (363.15 K) 70.07 ± 7 kPa.

With `CCOC(=O)OCC` [diethyl carbonate], the “vapor or sublimation pressure” value is, setting by setting: (353.15 K) 20.74 ± 2.2 kPa; (363.15 K) 30.23 ± 3.1 kPa.
